Measurements from patent US20200079793A1, “COMPOUNDS AND METHODS FOR MODULATING ADENOSINE A2B RECEPTOR AND ADENOSINE A2A RECEPTOR” (CORVUS PHARMACEUTICALS, INC., priority 2018, published 2020).

Experiments:
[1] = biological target: T1, A3R (Homo sapiens, UniProt P0DMS8); experiment: Activity assay of adenosine receptor modulators, A3R cAMP (Table 1); format: cell-based
T1 sequence (P0DMS8 1-318): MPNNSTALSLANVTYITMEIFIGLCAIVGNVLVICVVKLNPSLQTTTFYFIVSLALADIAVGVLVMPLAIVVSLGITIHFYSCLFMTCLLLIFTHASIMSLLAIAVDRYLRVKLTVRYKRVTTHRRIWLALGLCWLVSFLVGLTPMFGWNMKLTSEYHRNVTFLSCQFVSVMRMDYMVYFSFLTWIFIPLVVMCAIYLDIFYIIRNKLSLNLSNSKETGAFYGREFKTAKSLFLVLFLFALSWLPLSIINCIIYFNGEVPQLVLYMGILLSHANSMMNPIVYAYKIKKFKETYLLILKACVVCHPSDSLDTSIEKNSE
Experimental: (§1) Compounds (e.g., adenosine receptor modulators) were tested for its biological activity. The assay results in Table 1 indicate (+ means >1 μM; ++ means 100 nM to 1 μM; +++ means <100 nM).

[2] = biological target: T2, A1R (Homo sapiens, UniProt P30542); experiment: Activity assay of adenosine receptor modulators, A1R cAMP (Table 1); format: cell-based
T2 sequence (P30542 1-326): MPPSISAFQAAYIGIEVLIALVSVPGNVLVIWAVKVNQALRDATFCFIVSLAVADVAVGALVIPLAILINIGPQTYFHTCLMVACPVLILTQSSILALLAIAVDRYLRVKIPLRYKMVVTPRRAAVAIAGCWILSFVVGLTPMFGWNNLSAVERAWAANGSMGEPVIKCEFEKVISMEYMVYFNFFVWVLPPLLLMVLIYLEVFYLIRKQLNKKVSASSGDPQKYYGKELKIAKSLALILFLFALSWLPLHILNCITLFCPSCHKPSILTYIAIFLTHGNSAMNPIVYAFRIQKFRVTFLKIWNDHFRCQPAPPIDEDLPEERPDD
Experimental: as §1

[3] = biological target: T3, Adenosine A2B Receptor (Homo sapiens, UniProt P29275); experiment: Activity assay of adenosine receptor modulators, Adenosine A2B Receptor (Table 1); format: biochemical; conditions: cAMP; read-out: A2BR cAMP IC50
T3 sequence (P29275 1-332): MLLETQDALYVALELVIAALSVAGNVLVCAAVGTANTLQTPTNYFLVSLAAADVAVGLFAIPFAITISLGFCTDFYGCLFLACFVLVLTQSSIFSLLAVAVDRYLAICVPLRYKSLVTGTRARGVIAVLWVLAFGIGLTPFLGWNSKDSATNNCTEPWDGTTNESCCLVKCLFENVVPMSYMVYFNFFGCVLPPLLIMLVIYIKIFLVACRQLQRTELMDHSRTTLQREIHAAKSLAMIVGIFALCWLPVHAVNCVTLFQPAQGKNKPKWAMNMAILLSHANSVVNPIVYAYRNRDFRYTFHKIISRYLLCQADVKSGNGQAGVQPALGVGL
Experimental: as §1

[4] = biological target: Adenosine A2A Receptor (Homo sapiens, UniProt P29274); experiment: Activity assay of adenosine receptor modulators, Adenosine A2A Receptor (Table 1); format: biochemical; conditions: cAMP; read-out: A2AR cAMP IC50
Experimental: as §1

Chain of Adenosine A2A Receptor (P29274 whole entry): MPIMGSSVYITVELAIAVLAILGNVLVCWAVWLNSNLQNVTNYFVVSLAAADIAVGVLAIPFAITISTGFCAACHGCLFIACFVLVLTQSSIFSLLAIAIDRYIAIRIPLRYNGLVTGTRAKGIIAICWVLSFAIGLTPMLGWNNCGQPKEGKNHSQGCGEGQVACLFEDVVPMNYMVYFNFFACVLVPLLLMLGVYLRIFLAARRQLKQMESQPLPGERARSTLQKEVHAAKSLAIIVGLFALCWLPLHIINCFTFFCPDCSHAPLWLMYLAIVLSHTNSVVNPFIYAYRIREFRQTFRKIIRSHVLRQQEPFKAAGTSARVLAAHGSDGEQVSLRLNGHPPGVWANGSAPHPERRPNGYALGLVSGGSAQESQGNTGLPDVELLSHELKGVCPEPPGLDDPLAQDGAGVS

Which results are given for `Cc1nc2nc(N[C@@H](C)c3cncc(F)c3)nc(C(=O)N3CCCC3)c2s1` [Example 1, (S)-(5-((1-(5-Fluoropyridin-3-yl)ethyl)amino)-2-methylthiazolo[4,5-d]pyrimidin-7-yl)(pyrrolidin-1-yl)methanone]?
IC50 [1]: 100 to 1000 nM; IC50 [2]: > 1000 nM; IC50 [3]: < 100 nM; IC50 [4]: 100 to 1000 nM

Which results are given for `Cc1nc2nc(N[C@@H](C)c3cncc(F)c3)nc(C(=O)N3CCC3)c2s1` [Example 2, (S)-Azetidin-1-yl(5-((1-(5-fluoropyridin-3-yl)ethyl)amino)-2-methylthiazolo[4,5-d]pyrimidin-7-yl)methanone]?
IC50 [1]: 100 to 1000 nM; IC50 [2]: > 1000 nM; IC50 [3]: < 100 nM; IC50 [4]: 100 to 1000 nM

`Cc1nc2nc(N[C@@H](C)c3cncc(F)c3)nc(C(=O)NC[C@@H](C)O)c2s1` [Example 3, 5-(((S)-1-(5-Fluoropyridin-3-yl)ethyl)amino)-N—((R)-2-hydroxypropyl)-2-methylthiazolo[4,5-d]pyrimidine-7-carboxamide] was tested. Which IC50 [1] did it give?
The IC50 was 100 to 1000 nM.

What about the IC50 [2] of the same compound?
The IC50 was 100 to 1000 nM.

And the IC50 [3]?
Its IC50 is < 100 nM.

What about the IC50 [4] of the same compound?
The IC50 was 100 to 1000 nM.

With `Cc1nc2nc(N[C@@H](C)c3cncc(F)c3)nc(C(=O)N3CC[C@H](O)C3)c2s1` [Example 4, (5-(((S)-1-(5-Fluoropyridin-3-yl)ethyl)amino)-2-methylthiazolo[4,5-d]pyrimidin-7-yl)((S)-3-hydroxypyrrolidin-1-yl)methanone] as the compound, how does the IC50 [1] read?
The IC50 was > 1000 nM.

What about the IC50 [2] of the same compound?
Its IC50 is > 1000 nM.

And the IC50 [3]?
Its IC50 is < 100 nM.

What about the IC50 [4] of the same compound?
Its IC50 is > 1000 nM.

How did the IC50 [1] turn out when `Cc1nc2nc(N[C@@H](C)c3cncc(F)c3)nc(C(=O)NC[C@H](C)O)c2s1` [Example 5, 5-(((S)-1-(5-Fluoropyridin-3-yl)ethyl)amino)-N—((S)-2-hydroxypropyl)-2-methylthiazolo[4,5-d]pyrimidine-7-carboxamide] was run?
The IC50 was 100 to 1000 nM.

What about the IC50 [2] of the same compound?
The IC50 was 100 to 1000 nM.

What about the IC50 [3] of the same compound?
The IC50 was < 100 nM.

What about the IC50 [4] of the same compound?
Its IC50 is > 1000 nM.

Which IC50 [1] does the source give for `Cc1nc2nc(N[C@@H](C)c3cccnc3)nc(C(=O)N3CCCC3)c2s1` [Example 6, (S)-(2-Methyl-5-((1-(pyridin-3-yl)ethyl)amino)thiazolo[4,5-d]pyrimidin-7-yl)(pyrrolidin-1-yl)methanone] here?
Its IC50 is 100 to 1000 nM.

And the IC50 [2]?
The IC50 was > 1000 nM.

What about the IC50 [3] of the same compound?
The IC50 was < 100 nM.

And the IC50 [4]?
The IC50 was 100 to 1000 nM.

What does the source list for `Cc1nc2nc(N[C@@H](C)c3ccccn3)nc(C(=O)NC(C)C)c2s1` [Example 10, (S)—N-Isopropyl-2-methyl-5-((1-(pyridin-2-yl)ethyl)amino)thiazolo[4,5-d]pyrimidine-7-carboxamide]?
IC50 [3]: < 100 nM; IC50 [4]: 100 to 1000 nM

`Cc1nc2nc(N[C@@H](C)c3ccccn3)nc(C(=O)N3CC[C@@H](O)C3)c2s1` [Example 19, ((R)-3-Hydroxypyrrolidin-1-yl)(2-methyl-5-(((S)-1-(pyridin-2-yl)ethyl)amino)thiazolo[4,5-d]pyrimidin-7-yl)methanone] was tested. Which IC50 [3] did it give?
The IC50 was < 100 nM.

What about the IC50 [4] of the same compound?
The IC50 was > 1000 nM.

Which IC50 [3] does the source give for `C[C@H](Nc1nc(C(=O)N2CCCC2)c2sc(N)nc2n1)c1cccnc1` [Example 20, (S)-(2-Amino-5-((1-(pyridin-3-yl)ethyl)amino)thiazolo[4,5-d]pyrimidin-7-yl)(pyrrolidin-1-yl)methanone] here?
Its IC50 is 100 to 1000 nM.

And the IC50 [4]?
Its IC50 is > 1000 nM.

How did the IC50 [3] turn out when `Cc1nc2nc(N[C@@H](C)c3cncc(F)c3)nc(C(=O)NCCC3CCN(C(=O)OC(C)(C)C)CC3)c2s1` [Example 22, tert-Butyl (S)-4-(2-(5-((1-(5-fluoropyridin-3-yl)ethyl)amino)-2-methylthiazolo[4,5-d]pyrimidine-7-carboxamido)ethyl)piperidine-1-carboxylate] was run?
The IC50 was 100 to 1000 nM.

And the IC50 [4]?
Its IC50 is > 1000 nM.

Which results are given for `Cc1nc2nc(N[C@@H](C)c3cncc(F)c3)nc(C(=O)NCc3cccnc3)c2s1` [Example 23, (S)-5-((1-(5-Fluoropyridin-3-yl)ethyl)amino)-2-methyl-N-(pyridin-3-ylmethyl)thiazolo[4,5-d]pyrimidine-7-carboxamide]?
IC50 [3]: < 100 nM; IC50 [4]: 100 to 1000 nM

Which IC50 [3] does the source give for `Cc1nc2nc(N[C@@H](C)c3cncc(F)c3)nc(C(=O)N3CC(C(=O)N(C)C)C3)c2s1` [Example 26, (S)-1-(5-((1-(5-Fluoropyridin-3-yl)ethyl)amino)-2-methylthiazolo[4,5-d]pyrimidine-7-carbonyl)-N,N-dimethylazetidine-3-carboxamide] here?
The IC50 was < 100 nM.

And the IC50 [4]?
Its IC50 is > 1000 nM.

How did the IC50 [3] turn out when `Cc1nc2nc(N[C@@H](C)c3cccnc3)nc(C(=O)N[C@@H](C)c3cccnc3)c2s1` [Example 27, 2-Methyl-N—((S)-1-(pyridin-3-yl)ethyl)-5-(((S)-1-(pyridin-3-yl)ethyl)amino)thiazolo[4,5-d]pyrimidine-7-carboxamide] was run?
Its IC50 is 100 to 1000 nM.

And the IC50 [4]?
The IC50 was 100 to 1000 nM.

`Cc1nc2nc(N[C@@H](C)c3cncc(F)c3)nc(C(=O)N3CCN(C(=O)CC(C)(C)C)C3)c2s1` [Example 34, (S)-1-(3-(5-((1-(5-Fluoropyridin-3-yl)ethyl)amino)-2-methylthiazolo[4,5-d]pyrimidine-7-carbonyl)imidazolidin-1-yl)-3,3-dimethylbutan-1-one] was tested. Which IC50 [3] did it give?
Its IC50 is 100 to 1000 nM.

And the IC50 [4]?
The IC50 was > 1000 nM.

`Cc1nc2nc(N[C@@H](C)c3cncc(F)c3)nc(C(=O)N3CCN(C(=O)NC(C)(C)C)C3)c2s1` [Example 35, (S)—N-(tert-Butyl)-3-(5-((1-(5-fluoropyridin-3-yl)ethyl)amino)-2-methylthiazolo[4,5-d]pyrimidine-7-carbonyl)imidazolidine-1-carboxamide] was tested. Which IC50 [3] did it give?
Its IC50 is 100 to 1000 nM.

And the IC50 [4]?
Its IC50 is 100 to 1000 nM.

How did the IC50 [3] turn out when `Cc1nc2nc(N[C@@H](C)c3cncc(F)c3)nc(C(=O)NCCNC(=O)NC(C)(C)C)c2s1` [Example 36, (S)—N-(2-(3-(tert-butyl)ureido)ethyl)-5-((1-(5-fluoropyridin-3-yl)ethyl)amino)-2-methylthiazolo[4,5-d]pyrimidine-7-carboxamide] was run?
Its IC50 is > 1000 nM.

And the IC50 [4]?
The IC50 was 100 to 1000 nM.

With `Cc1nc2nc(N[C@@H](C)c3cncc(F)c3)nc(C(=O)N3CC[C@@H](N)C3)c2s1` [Example 42, ((R)-3-Aminopyrrolidin-1-yl)(5-(((S)-1-(5-fluoropyridin-3-yl)ethyl)amino)-2-methylthiazolo[4,5-d]pyrimidin-7-yl)methanone] as the compound, how does the IC50 [3] read?
The IC50 was 100 to 1000 nM.

What about the IC50 [4] of the same compound?
Its IC50 is > 1000 nM.

How did the IC50 [3] turn out when `Cc1nc2nc(N[C@@H](C)c3cncc(F)c3)nc(C(=O)N3CC[C@H](N)C3)c2s1` [Example 43, ((S)-3-Aminopyrrolidin-1-yl)(5-(((S)-1-(5-fluoropyridin-3-yl)ethyl)amino)-2-methylthiazolo[4,5-d]pyrimidin-7-yl)methanone] was run?
The IC50 was 100 to 1000 nM.

What about the IC50 [4] of the same compound?
The IC50 was > 1000 nM.

What does the source list for `CC(=O)N(C)C1CN(C(=O)c2nc(N[C@@H](C)c3cncc(F)c3)nc3nc(C)sc23)C1` [Example 44, (S)—N-(1-(5-((1-(5-Fluoropyridin-3-yl)ethyl)amino)-2-methylthiazolo[4,5-d]pyrimidine-7-carbonyl)azetidin-3-yl)-N-methylacetamide]?
IC50 [3]: 100 to 1000 nM; IC50 [4]: > 1000 nM

Which results are given for `Cc1nc2nc(N[C@@H](C)c3cncc(F)c3)nc(C(=O)N3CC(NC(=O)C4CCOC4)C3)c2s1` (stereo partly drawn) [Example 45, N-(1-(5-(((S)-1-(5-Fluoropyridin-3-yl)ethyl)amino)-2-methylthiazolo[4,5-d]pyrimidine-7-carbonyl)azetidin-3-yl)tetrahydrofuran-3-carboxamide]?
IC50 [3]: 100 to 1000 nM; IC50 [4]: 100 to 1000 nM

Which IC50 [3] does the source give for `Cc1nc2nc(N[C@@H](C)c3cncc(F)c3)nc(C(=O)NCCN3CCOCC3)c2s1` [Example 46, (S)-5-((1-(5-Fluoropyridin-3-yl)ethyl)amino)-2-methyl-N-(2-morpholinoethyl)thiazolo[4,5-d]pyrimidine-7-carboxamide] here?
The IC50 was 100 to 1000 nM.

What about the IC50 [4] of the same compound?
The IC50 was > 1000 nM.
